Measured values reported in US20250270513A1, “METHOD FOR PRODUCING CULTURED TISSUE, AND PREPARATION FOR EXTERNAL APPLICATION” (National University Corporation Ehime University, priority 2019, published 2025).

Legend:
[1] = tested on: human normal skin keratinocytes on collagen gel containing normal human skin fibroblasts (NHDF); assay: Three-dimensional cultured skin on a sugar-containing dermal cell structure (Test Example 1); format: cell-based; settings: 30 mg/mL sugar added instead of trehalose to collagen gel containing fibroblasts
Description: Subsequently, about 1 mL of the gel obtained was poured into a transwell-collagen coated insert (catalog number: 3492, manufactured by Costar; pore size: 3.0 μm, surface area: 4.67 cm^2), which is a cell culture insert, and allowed to stand in an incubator for 5 minutes or more. 5 mL of DMEM containing 10 v/v % FCS and 1 v/v % ABAM (Antibiotics-Antimycotic solution, 100×, manufactured by ThermoFisher Scientific Inc.) in which normal human skin fibroblasts (NHDF, manufactured by Cambrex Corporation) were suspended at a cell density of 5×10^5 cells/mL was added to 29 mL of the gel solution I. About 3.5 mL of a gel solution containing the cells was added to the cell culture insert, and the mixture was allowed to stand in a 37° C. incubator for 30 minutes to gel.
• (2) Next, the collagen gel (layered dermal cell structure) containing NHDF was pre-cultured for 5 days using a DMEM medium containing 50 μg/ml ascorbic acid, 10 v/v % FCS, and 1 v/v % ABAM. Next, human normal skin keratinocytes suspended in MCDB medium were seeded on the collagen gel surface so as to be 1.28×10^5 cells/cm^2, and a medium obtained by mixing equal amounts of MCDB Type-II medium (Growth Medium 2 in JP-B2-3066624) and EGM was added to an external liquid of the cell culture insert and the inside of the insert, followed by culturing at 37° C. for 2 days.
• (3) The medium was replaced with a cornification medium (CM medium), and the cell culture insert was placed such that a porous membrane of the cell culture insert was located at a gas-liquid interface of the cornification medium. In this state, the cells were subjected to gas-liquid interface culture at 37° C. for 7 to 14 days to induce differentiation, thereby obtaining three-dimensional cultured skin. The medium was replaced every two days from the start of the culture.

[2] = tested on: EREG, ARG2, CCL2, IL1RN, PGF, SPP1, VEGFA, AREG and DPT mRNA; assay: qPCR of genes in monolayer fibroblasts, 24 hours (Test Example 3-3); format: cell-based, human; settings: group treated with hyaluronic acid oligosaccharides (HA oligo)
Description: In the same manner as in Test Example 3-2, NHDF was cultured in 1% FCS and 1% ABAM-containing DMEM medium containing 0, 30, or 100 mg/mL trehalose or hyaluronic acid oligosaccharide 4mer (HA4) (product code 11006, manufactured by Cosmo Bio Co., Ltd.) for 24 hours, and RNA was recovered from the cells. Also, as a control, RNA was recovered from fibroblasts before treatment (0 h in FIG. 9). The obtained sample was subjected to the same operation as in Test Example 3-2, and qPCR for genes EREG, ARG2, CCL2, IL1RN, PGF, SPP1, VEGFA, AREG and DPT was performed. GAPDH was used as a reference gene.

| Compound | formation of epithelial tissue layer [1] | increase in mRNA expression level of genes EREG, ARG2, CCL2, IL1RN, PGF, SPP1, VEGFA, AREG and DPT [2] |
| --- | --- | --- |
| OC[C@H]1O[C@@](CO)(O[C@H]2O[C@H](CO)[C@@H](O)[C@H](O)[C@H]2O)[C@@H](O)[C@@H]1O [sucrose, reference compound] | no epithelial tissue layer was formed |  |
| hyaluronic acid oligosaccharide 4mer [hyaluronic acid oligosaccharides, reference compound] |  | not observed |
| O=C(CO)[C@@H](O)[C@H](O)[C@H](O)CO [fructose, reference compound] | no epithelial tissue layer was formed |  |
